Experimental data reported in ChEMBL document CHEMBL1136021, “Design, synthesis, and SAR of substituted acrylamides as factor Xa inhibitors” (Bioorg Med Chem Lett, 2002).

Tests used:
[1] = biological target: T1, Coagulation factor X (Homo sapiens, UniProt P00742); experiment: Inhibitory activity against factor Xa
[2] = biological target: Serine protease 1 (Homo sapiens, UniProt P07477); experiment: Inhibitory activity against trypsin was determined
[3] = biological target: Prothrombin (Homo sapiens, UniProt P00734); experiment: Inhibitory activity against Factor IIa (serine protease) was determined
[4] = biological target: T1, Coagulation factor X; experiment: Inhibitory activity against factor Xa was determined
[5] = biological target: T1, Coagulation factor X; experiment: Inhibitory activity against factor Xa, activity expressed as Ki nM
[6] = biological target: T1, Coagulation factor X; experiment: Inhibitory activity against Coagulation factor Xa (serine protease) was determined

T1 sequence (P00742 41-179 limits assumed): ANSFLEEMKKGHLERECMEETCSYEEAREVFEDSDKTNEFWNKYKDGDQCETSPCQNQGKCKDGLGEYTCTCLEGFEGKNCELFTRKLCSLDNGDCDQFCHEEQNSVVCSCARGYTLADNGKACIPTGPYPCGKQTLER
T1 sequence (P00742 235-488 limits assumed): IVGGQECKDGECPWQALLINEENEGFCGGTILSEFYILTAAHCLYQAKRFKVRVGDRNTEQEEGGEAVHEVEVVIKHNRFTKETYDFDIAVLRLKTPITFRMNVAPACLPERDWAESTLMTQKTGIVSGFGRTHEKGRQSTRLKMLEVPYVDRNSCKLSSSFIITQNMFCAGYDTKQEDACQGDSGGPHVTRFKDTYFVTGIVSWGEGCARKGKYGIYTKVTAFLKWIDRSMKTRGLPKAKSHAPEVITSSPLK
Sequence of Serine protease 1 (P07477 whole entry): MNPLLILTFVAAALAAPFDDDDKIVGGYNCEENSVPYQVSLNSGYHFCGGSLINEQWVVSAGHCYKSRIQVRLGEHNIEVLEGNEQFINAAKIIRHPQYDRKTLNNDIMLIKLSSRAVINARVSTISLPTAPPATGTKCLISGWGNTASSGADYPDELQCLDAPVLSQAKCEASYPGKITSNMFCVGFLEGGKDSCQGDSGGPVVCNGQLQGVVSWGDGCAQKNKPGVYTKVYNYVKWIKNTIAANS

| Structure (SMILES) | IC50 [1] [nM] | also measured |
| --- | --- | --- |
| CS(=O)(=O)CC(=C(F)C(=O)Nc1ccc(-c2ccccc2S(N)(=O)=O)cc1)c1cccc(C(=N)N)c1 | 10 | – |
| N=C(N)c1cccc(C(=CC(=O)Nc2ccc(-c3ccccc3S(N)(=O)=O)cc2)C(F)(F)F)c1 | 10 | – |
| CC(=C(F)C(=O)Nc1ccc(-c2ccccc2S(N)(=O)=O)cc1Br)c1ccc(F)c(C(=N)N)c1 | 0.75 | – |
| CC(=C(F)C(=O)Nc1ccc(-c2ccccc2S(N)(=O)=O)cc1)c1cccc(C(=N)N)c1 | 1 | IC50 [2]: 259 nM; IC50 [3]: 3190 nM |
| N=C(N)c1cccc(C(=CC(=O)Nc2ccc(-c3ccccc3S(N)(=O)=O)cc2)Cc2cc[nH]n2)c1 | 48 | – |
| N=C(N)c1cc(C=CC(=O)Nc2ccc(-c3ccccc3S(N)(=O)=O)cc2)ccc1F | 99 | – |
| COCCOc1ccc(C(=N)N)cc1C=CC(=O)Nc1ccc(-c2ccccc2S(N)(=O)=O)cc1 | 9 | – |
| CC(=Cc1cccc(C(=N)N)c1)C(=O)Nc1ccc(-c2ccccc2S(N)(=O)=O)cc1 | 362 | – |
| C/C(=C(\F)C(=O)Nc1ccc(-c2ccccc2S(N)(=O)=O)cc1F)c1cccc(C(=N)N)c1 | 0.2 | IC50 [2]: 194 nM; IC50 [3]: 2200 nM |
| CC(C)C(=CC(=O)Nc1ccc(-c2ccccc2S(N)(=O)=O)cc1)c1cccc(C(=N)N)c1 | 35 | – |
| CC(=C(F)C(=O)Nc1ccc(-c2ccccc2S(N)(=O)=O)cc1Br)c1cccc(C(=N)N)c1 | 0.5 | IC50 [2]: 189 nM; IC50 [3]: 503 nM |
| CN(C)CC(=C(F)C(=O)Nc1ccc(-c2ccccc2S(N)(=O)=O)cc1F)c1cccc(C(=N)N)c1 | 191 | – |
| C/C(=C(\F)C(=O)Nc1ccc(-c2ccccc2S(N)(=O)=O)cc1F)c1cc(C(=N)N)ccc1N | 2.6 | – |
| N=C(N)c1cccc(C=C(C(=O)Nc2ccc(-c3ccccc3S(N)(=O)=O)cc2)c2ccncc2)c1 | 628 | – |
| CC(=C(F)C(=O)Nc1ccc(-c2ccccc2S(N)(=O)=O)cc1)c1ccc(F)c(C(=N)N)c1 | 3.6 | – |
| COC(=O)C(=Cc1cccc(C(=N)N)c1)C(=O)Nc1ccc(-c2ccccc2S(N)(=O)=O)cc1 | – | IC50 [4]: 759 nM |
| CCSCC(=C(F)C(=O)Nc1ccc(-c2ccccc2S(N)(=O)=O)cc1)c1cccc(C(=N)N)c1 | 13 | – |
| C/C(=C(\F)C(=O)Nc1ccc(-c2ccccc2S(N)(=O)=O)cc1F)c1cc(C(=N)N)ccc1[N+](=O)[O-] | 15 | – |
| CC(C)CC(=CC(=O)Nc1ccc(-c2ccccc2S(N)(=O)=O)cc1)c1cccc(C(=N)N)c1 | 5 | – |

| Structure (SMILES) | IC50 [1] [nM] | also measured |
| --- | --- | --- |
| CC(=C(F)C(=O)Nc1ccc(-c2ccccc2S(N)(=O)=O)cc1F)c1ccc(F)c(C(=N)N)c1 | 1.5 | – |
| N=C(N)c1cccc(C(CO)=C(F)C(=O)Nc2ccc(-c3ccccc3S(N)(=O)=O)cc2)c1 | 3.7 | – |
| COc1ccc(C(=N)N)cc1C=CC(=O)Nc1ccc(-c2ccccc2S(N)(=O)=O)cc1 | 215 | – |
| N=C(N)c1cccc(C(=CC(=O)Nc2ccc(-c3ccccc3S(N)(=O)=O)cc2)Cn2cnnn2)c1 | 53 | – |
| COc1ccc(C=CC(=O)Nc2ccc(-c3ccccc3S(N)(=O)=O)cc2)cc1C(=N)N | 6470 | – |
| N=C(N)c1cccc(C=CC(=O)Nc2ccc(-c3ccccc3S(N)(=O)=O)cc2)c1 [listing 1 of 2 here] | 17 | – |
| N=C(N)c1cccc(/C(=C\C(=O)Nc2ccc(-c3ccccc3S(N)(=O)=O)cc2)c2ccco2)c1 | 184 | – |
| N=C(N)c1ccc(F)c(C=CC(=O)Nc2ccc(-c3ccccc3S(N)(=O)=O)cc2)c1 | 18 | – |
| N=C(N)c1cccc(C(=C(F)C(=O)Nc2ccc(-c3ccccc3S(N)(=O)=O)cc2)C(F)(F)F)c1 | 3 | – |
| CC(=C(CC(=O)O)C(=O)Nc1ccc(-c2ccccc2S(N)(=O)=O)cc1)c1cccc(C(=N)N)c1 | 234 | – |
| N=C(N)c1cccc(C(=CC(=O)Nc2ccc(-c3ccccc3S(N)(=O)=O)cc2)Cn2ncnn2)c1 | 245 | – |
| CC(=C(CC(N)=O)C(=O)Nc1ccc(-c2ccccc2S(N)(=O)=O)cc1)c1cccc(C(=N)N)c1 | 99 | – |
| CC(=C(F)C(=O)Nc1ccc(-c2ccccc2S(N)(=O)=O)cc1Cl)c1ccc(F)c(C(=N)N)c1 | 0.74 | Ki [5]: 0.18 nM |
| N=C(N)c1cccc(C=CC(=O)Nc2ccc(-c3ccccc3S(N)(=O)=O)cc2)c1 [listing 2 of 2 here] | – | IC50 [6]: 3120 nM |
| COCC(=CC(=O)Nc1ccc(-c2ccccc2S(N)(=O)=O)cc1)c1cccc(C(=N)N)c1 | 7 | – |
| CC(=C(F)C(=O)Nc1ccc(-c2ccccc2S(N)(=O)=O)cc1Cl)c1cccc(C(=N)N)c1 | 0.5 | IC50 [2]: 188 nM; IC50 [3]: 650 nM |
| CC(=CC(=O)Nc1ccc(-c2ccccc2S(N)(=O)=O)cc1)c1cccc(C(=N)N)c1 | 4 | – |
| CCC(=CC(=O)Nc1ccc(-c2ccccc2S(N)(=O)=O)cc1)c1cccc(C(=N)N)c1 | 7 | – |
| N=C(N)c1cccc(C=C(C(=O)Nc2ccc(-c3ccccc3S(N)(=O)=O)cc2)c2ccccn2)c1 | 664 | – |
